Experimental findings from BindingDB's records for doi:10.3109/14756361003698147 (Shandong University, 2012) are described below.

Structures can show the parent of a compound that is named as a salt.

The target of assay [1] is 72 kDa type IV collagenase (Homo sapiens, UniProt P08253). Kind of assay: In Vitro MMP-2 Inhibition Assay. The note with it: pH 8.5; 25 °C.
Another assay concerns the target T1, Aminopeptidase N (Sus scrofa, UniProt P15145).
T1 sequence (P15145 whole entry): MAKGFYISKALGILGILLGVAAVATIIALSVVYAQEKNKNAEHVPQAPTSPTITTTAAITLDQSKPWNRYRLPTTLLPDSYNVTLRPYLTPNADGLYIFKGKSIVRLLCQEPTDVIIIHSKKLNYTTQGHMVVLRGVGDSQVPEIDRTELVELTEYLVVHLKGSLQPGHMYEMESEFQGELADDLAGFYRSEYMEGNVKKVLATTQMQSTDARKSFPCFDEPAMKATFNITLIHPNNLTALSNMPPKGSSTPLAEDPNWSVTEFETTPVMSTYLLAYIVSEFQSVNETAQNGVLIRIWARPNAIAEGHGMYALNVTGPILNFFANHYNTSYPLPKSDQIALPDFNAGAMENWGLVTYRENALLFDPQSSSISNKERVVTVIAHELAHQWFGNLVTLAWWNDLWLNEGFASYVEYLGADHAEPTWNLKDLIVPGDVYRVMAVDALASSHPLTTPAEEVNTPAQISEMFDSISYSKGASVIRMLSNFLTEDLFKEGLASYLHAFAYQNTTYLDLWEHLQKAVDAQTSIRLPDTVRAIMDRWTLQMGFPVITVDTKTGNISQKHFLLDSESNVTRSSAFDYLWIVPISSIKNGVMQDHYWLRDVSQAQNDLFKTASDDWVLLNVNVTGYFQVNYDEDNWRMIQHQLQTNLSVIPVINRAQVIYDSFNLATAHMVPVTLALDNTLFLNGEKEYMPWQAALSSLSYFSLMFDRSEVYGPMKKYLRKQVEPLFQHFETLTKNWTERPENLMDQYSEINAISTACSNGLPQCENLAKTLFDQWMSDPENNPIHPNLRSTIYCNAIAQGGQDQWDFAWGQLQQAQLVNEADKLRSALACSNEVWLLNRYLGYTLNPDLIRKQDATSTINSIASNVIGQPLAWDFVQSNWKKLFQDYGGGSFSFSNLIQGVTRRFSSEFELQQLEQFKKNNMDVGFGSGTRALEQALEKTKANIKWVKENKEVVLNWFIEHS
Kind of assay: In Vitro APN Inhibition Assay. The protocol:
Allcompounds were pre-incubated with APN on a 96-well plate for 30 min. […] Fifteen minutes later, the absorbance (OD405) of the wells was recorded on a microplate reader.

Sequence of 72 kDa type IV collagenase (P08253 whole entry): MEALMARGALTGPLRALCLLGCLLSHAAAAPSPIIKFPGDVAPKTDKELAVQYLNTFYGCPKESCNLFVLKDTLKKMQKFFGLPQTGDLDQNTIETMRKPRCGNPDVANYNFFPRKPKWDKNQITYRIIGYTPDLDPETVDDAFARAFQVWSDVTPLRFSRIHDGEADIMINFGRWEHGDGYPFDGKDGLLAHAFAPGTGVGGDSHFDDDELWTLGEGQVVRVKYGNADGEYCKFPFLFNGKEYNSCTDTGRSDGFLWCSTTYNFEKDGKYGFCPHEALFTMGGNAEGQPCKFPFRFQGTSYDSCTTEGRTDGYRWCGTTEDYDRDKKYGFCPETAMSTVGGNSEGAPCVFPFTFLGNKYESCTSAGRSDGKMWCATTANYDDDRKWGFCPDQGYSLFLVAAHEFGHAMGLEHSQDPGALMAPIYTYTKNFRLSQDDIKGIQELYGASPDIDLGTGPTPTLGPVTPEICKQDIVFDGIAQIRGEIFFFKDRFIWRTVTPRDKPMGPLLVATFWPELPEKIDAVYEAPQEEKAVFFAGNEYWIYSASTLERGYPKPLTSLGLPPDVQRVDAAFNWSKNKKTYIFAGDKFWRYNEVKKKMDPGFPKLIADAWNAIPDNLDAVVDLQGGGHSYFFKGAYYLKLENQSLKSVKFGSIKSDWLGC

The term IC50 denotes the concentration needed to halve the response being measured. Lower therefore signals greater potency. `CC(C)C[C@H](NC(=O)[C@@H](O)[C@H](N)Cc1ccccc1)C(=O)O` gave an IC50 in assay [1] of 167 µM. As for `CC(C)C[C@H](NC(=O)[C@@H](O)CN)C(=O)O`, the IC50 against Aminopeptidase N came out at 199 µM; in assay [1], 364 µM.

Take `NC[C@H](O)C(=O)N[C@@H](Cc1ccccc1)C(=O)O` [(2S)-2-[(2S)-3-amino-2-hydroxypropanamido]-3-phenylpropanoic acid (12a)]: the values for the IC50 (at Aminopeptidase N; in assay [1]) were 249 µM and 710 µM, respectively.

Regarding `NC[C@H](O)C(=O)N[C@@H](Cc1ccccc1)C(=O)OCc1ccccc1` [L-Isoseryl-L- phenylalanine benzyl ester hydrochloride (11c)], the IC50 is 99.5 µM at Aminopeptidase N and 329 µM in assay [1]. Take `CC(C)C[C@H](NC(=O)[C@@H](O)CN)C(=O)OCc1ccccc1` [L-Isoseryl-L-leucine benzyl ester hydrochloride (11d)]: the IC50 against Aminopeptidase N stood at 195 µM; in assay [1], 1000 µM. On the same counts, the results for `COC(=O)[C@H](CC(C)C)NC(=O)[C@@H](O)CN` [L-Isoseryl-L-leucine methyl ester hydrochloride (11b)] are 229 µM and 682 µM. On the same counts, the results for `CC(C)C[C@H](NC(=O)[C@@H](O)CN)C(=O)N[C@@H](Cc1ccccc1)C(=O)O` [L-Isoseryl-L-leucyl-L-phenylalanine hydrochloride (14a)] are 20.9 µM and 115 µM. On the same counts, the results for `COC(=O)[C@H](Cc1ccccc1)NC(=O)[C@H](CC(C)C)NC(=O)[C@@H](O)CN` [L-Isoseryl-L-leucyl-L-phenylalanine methyl ester hydrochloride (13a)] are 140 µM and 126 µM.

Take `CC(C)C[C@H](NC(=O)[C@H](Cc1ccccc1)NC(=O)[C@@H](O)CN)C(=O)OCc1ccccc1` [L-Isoseryl-L-phenylalanyl-L-leucine benzyl ester hydrochloride (13d)]: the IC50 is 32.2 µM on Aminopeptidase N and 334 µM in assay [1].

For `CC(C)C[C@H](NC(=O)[C@H](Cc1ccccc1)NC(=O)[C@@H](O)CN)C(=O)O` [L-Isoseryl-L-phenylalanyl-L-leucine hydrochloride (14b)], the values for the IC50 (against Aminopeptidase N; in assay [1]) were 12.2 µM and 203 µM, respectively. For `COC(=O)[C@H](Cc1ccccc1)NC(=O)[C@@H](O)CN` [Methyl (2S)-2-[(2S)-3-amino-2-hydroxypropanamido]-3-phenylpropanoate (11a)], the IC50 at Aminopeptidase N was 302 µM; in assay [1], more than 1000 µM.
